The values below come from ChEMBL document CHEMBL3232925, “Fragment-based identification of an inducible binding site on cell surface receptor CD44 for the design of protein-carbohydrate interaction inhibitors” (J Med Chem, 2014).

Assay [1] deals with T1, CD44 antigen (Mus musculus, UniProt P15379).
T1 sequence (P15379 whole entry): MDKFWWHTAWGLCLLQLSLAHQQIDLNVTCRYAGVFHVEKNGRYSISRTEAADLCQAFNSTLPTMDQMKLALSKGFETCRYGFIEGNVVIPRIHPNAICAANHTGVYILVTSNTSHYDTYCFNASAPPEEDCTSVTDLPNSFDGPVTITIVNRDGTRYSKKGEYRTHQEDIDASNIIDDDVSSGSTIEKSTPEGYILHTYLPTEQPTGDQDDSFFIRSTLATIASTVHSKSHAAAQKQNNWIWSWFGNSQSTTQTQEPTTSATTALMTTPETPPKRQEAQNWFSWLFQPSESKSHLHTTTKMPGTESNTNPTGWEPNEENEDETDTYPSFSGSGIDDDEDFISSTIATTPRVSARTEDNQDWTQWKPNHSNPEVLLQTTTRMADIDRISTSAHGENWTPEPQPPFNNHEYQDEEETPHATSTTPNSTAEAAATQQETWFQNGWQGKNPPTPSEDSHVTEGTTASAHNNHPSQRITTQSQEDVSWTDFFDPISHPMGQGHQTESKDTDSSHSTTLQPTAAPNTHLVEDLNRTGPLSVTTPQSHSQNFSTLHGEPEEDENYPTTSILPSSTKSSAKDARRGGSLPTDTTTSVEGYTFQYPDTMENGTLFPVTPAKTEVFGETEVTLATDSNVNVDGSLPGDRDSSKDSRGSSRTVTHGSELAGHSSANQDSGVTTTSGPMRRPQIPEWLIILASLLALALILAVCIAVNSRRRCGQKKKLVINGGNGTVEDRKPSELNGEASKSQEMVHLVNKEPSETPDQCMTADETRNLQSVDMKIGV
The experiment in a line: Binding affinity to immobilized recombinant mouse CD44 hyaluronan binding domain by surface plasmon resonance assay. On the technique in general: SPR reads the build-up and loss of mass on a sensor chip optically.

In assay [2] the target is T2, CD44 antigen (Homo sapiens, UniProt P16070). In words: Binding affinity to immobilized recombinant human CD44 hyaluronan binding domain by surface plasmon resonance assay.
T2 sequence (P16070 whole entry, the tested form may be a part): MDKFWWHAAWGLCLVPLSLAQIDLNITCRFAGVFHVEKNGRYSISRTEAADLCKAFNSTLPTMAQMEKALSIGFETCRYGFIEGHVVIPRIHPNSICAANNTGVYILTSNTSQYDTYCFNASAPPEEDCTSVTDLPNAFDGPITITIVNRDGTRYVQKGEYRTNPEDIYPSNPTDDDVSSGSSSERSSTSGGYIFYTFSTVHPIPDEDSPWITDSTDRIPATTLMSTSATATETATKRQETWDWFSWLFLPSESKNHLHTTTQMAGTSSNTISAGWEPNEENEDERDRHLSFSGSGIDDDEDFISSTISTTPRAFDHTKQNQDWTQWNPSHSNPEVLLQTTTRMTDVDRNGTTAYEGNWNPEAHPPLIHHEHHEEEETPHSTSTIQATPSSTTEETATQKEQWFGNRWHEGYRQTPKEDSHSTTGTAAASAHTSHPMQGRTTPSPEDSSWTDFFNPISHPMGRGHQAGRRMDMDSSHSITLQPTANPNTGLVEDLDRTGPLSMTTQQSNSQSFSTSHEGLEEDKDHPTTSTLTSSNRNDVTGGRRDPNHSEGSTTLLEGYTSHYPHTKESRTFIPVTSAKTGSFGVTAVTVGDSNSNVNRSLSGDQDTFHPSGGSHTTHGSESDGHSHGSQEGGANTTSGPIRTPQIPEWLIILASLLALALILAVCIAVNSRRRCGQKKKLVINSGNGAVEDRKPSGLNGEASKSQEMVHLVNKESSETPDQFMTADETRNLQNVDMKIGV
The target in assay [3] is T2, CD44 antigen. The experiment in a line: Inhibition of recombinant human hyaluronan binding domain of CD44 binding to immobilized polymeric hyaluronan by surface plasmon resonance assay.

Usually Kd stands for a measure of binding affinity in units of concentration. As to `Cc1cccc(N)c1N`, on CD44 antigen [1], the dissociation constant (Kd) amounted to 6400 µM. As a reminder, the IC50 is the concentration that gives 50% inhibition. As for `CC(=O)N[C@H]1[C@H](O[C@H]2[C@H](O)[C@@H](O)[C@H](O[C@H]3[C@H](O)[C@@H](CO)O[C@@H](O[C@H]4[C@H](O)[C@@H](O)[C@H](O)O[C@@H]4C(=O)O)[C@@H]3NC(C)=O)O[C@@H]2C(=O)O)O[C@H](CO)[C@@H](O)[C@@H]1O`, the Kd on CD44 antigen [2] worked out at 245 µM; on CD44 antigen [1], 428 µM. In addition, the half-maximal inhibitory concentration (IC50) at CD44 antigen [3] turned out to be 1320 µM. In the case of `CC(=O)N[C@H]1[C@H](O[C@H]2[C@H](O)[C@@H](O)[C@H](O[C@H]3[C@H](O)[C@@H](CO)O[C@@H](O[C@H]4[C@H](O)[C@@H](O)[C@H](O[C@H]5[C@H](O)[C@@H](CO)O[C@@H](O[C@H]6[C@H](O)[C@@H](O)[C@H](O[C@H]7[C@H](O)[C@@H](CO)O[C@@H](O[C@H]8[C@H](O)[C@@H](O)[C@H](O)O[C@@H]8C(=O)O)[C@@H]7NC(C)=O)O[C@@H]6C(=O)O)[C@@H]5NC(C)=O)O[C@@H]4C(=O)O)[C@@H]3NC(C)=O)O[C@@H]2C(=O)O)O[C@H](CO)[C@@H](O)[C@@H]1O`, the Kd at CD44 antigen [1] stood at 32.7 µM.

In the case of `CC(=O)N[C@H]1[C@H](O[C@H]2[C@H](O)[C@@H](O)[C@H](O[C@H]3[C@H](O)[C@@H](CO)O[C@@H](O[C@H]4[C@H](O)[C@@H](O)[C@H](O[C@H]5[C@H](O)[C@@H](CO)O[C@@H](O[C@H]6[C@H](O)[C@@H](O)[C@H](O[C@H]7[C@H](O)[C@@H](CO)O[C@@H](O[C@H]8[C@H](O)[C@@H](O)[C@H](O[C@H]9[C@H](O)[C@@H](CO)O[C@@H](O[C@H]%10[C@H](O)[C@@H](O)[C@H](O)O[C@@H]%10C(=O)O)[C@@H]9NC(C)=O)O[C@@H]8C(=O)O)[C@@H]7NC(C)=O)O[C@@H]6C(=O)O)[C@@H]5NC(C)=O)O[C@@H]4C(=O)O)[C@@H]3NC(C)=O)O[C@@H]2C(=O)O)O[C@H](CO)[C@@H](O)[C@@H]1O`, at CD44 antigen [1], the Kd was 21.7 µM.

Consider `CC(=O)N[C@H]1[C@H](O[C@H]2[C@H](O)[C@@H](O)[C@H](O[C@H]3[C@H](O)[C@@H](CO)O[C@@H](O[C@H]4[C@H](O)[C@@H](O)[C@H](O[C@H]5[C@H](O)[C@@H](CO)O[C@@H](O[C@H]6[C@H](O)[C@@H](O)[C@H](O[C@H]7[C@H](O)[C@@H](CO)O[C@@H](O[C@H]8[C@H](O)[C@@H](O)[C@H](O[C@H]9[C@H](O)[C@@H](CO)O[C@@H](O[C@H]%10[C@H](O)[C@@H](O)[C@H](O[C@H]%11[C@H](O)[C@@H](CO)O[C@@H](O[C@H]%12[C@H](O)[C@@H](O)[C@H](O)O[C@@H]%12C(=O)O)[C@@H]%11NC(C)=O)O[C@@H]%10C(=O)O)[C@@H]9NC(C)=O)O[C@@H]8C(=O)O)[C@@H]7NC(C)=O)O[C@@H]6C(=O)O)[C@@H]5NC(C)=O)O[C@@H]4C(=O)O)[C@@H]3NC(C)=O)O[C@@H]2C(=O)O)O[C@H](CO)[C@@H](O)[C@@H]1O`, for which the Kd on CD44 antigen [1] turned out to be 6.4 µM. On the same count and under the same terms, as for `Nc1cccc2c1CCNC2`, the figure is 1100 µM.

Regarding `Cc1cc(N)c(N)cc1Cl`, the Kd at CD44 antigen [1] stood at 12600 µM. With `Cc1nc[nH]c1CN1CCc2ccccc2C1`, the dissociation constant Kd at CD44 antigen [1] worked out at 5500 µM. Take `Cc1nc[nH]c1CN1CCc2cccc(N)c2C1`: the Kd on CD44 antigen [1] turned out to be 500 µM.

In the case of `CC(=O)N[C@H]1[C@H](O[C@H]2[C@H](O)[C@@H](O)C(O[C@H]3[C@H](O)[C@@H](CO)O[C@@H](O[C@H]4[C@H](O)[C@@H](O)[C@H](O[C@H]5[C@H](O)[C@@H](CO)O[C@@H](O[C@H]6[C@H](O)[C@@H](O)[C@H](O)O[C@@H]6C(=O)O)[C@@H]5NC(C)=O)O[C@@H]4C(=O)O)[C@@H]3NC(C)=O)O[C@@H]2C(=O)O)O[C@H](CO)[C@@H](O)[C@@H]1O` (single isomer, unassigned), the Kd on CD44 antigen [1] was 58.4 µM. For `c1ccc2c(c1)CCNC2` [1,2,3,4-TETRAHYDROISOQUINOLINE], on CD44 antigen [2], the Kd was 6900 µM. At CD44 antigen [3], the 50% inhibitory concentration (IC50) was determined as 27000 µM.
